Tests used:
CC531 cells = test: Colorectal carcinoma model: CC531 cells implanted into the liver of Wag rats, tumor volume, metastasis and tolerability; assay type: in vivo; conditions: for Tumor Volume: % ± SD compared to untreated controls, CC531 liver tumor in Wag rats, treatment from 7th to 28th postoperative day; for tumor growth / primary tumor volume (in words): treatment day 7-28
Description: ombination of 1-(4-Chloroanilino)-4-(4-pyridylmethyl)phthalazine drochloride (ZK) and 3-pyridylmethyl-N-{4-[(2-amino-phenyl)-rbamoyl]benzyl}carbamate (MS) with Tamoxifen (TAM)
C cells CC531 were cultured in vitro (10th-15th passage) and implanted into e liver of adult (250 g) immuncompetent Wag rats (n/group=12). Between the venth and the 28th postoperative day the rats received either a placebo erapy, the conventional chemotherapy 5-fluoruracil (5FU, 10 mg/kg) or the llowing biomodulators alone or in combination: the VEGF receptor antagonist (4-Chloroanilino)-4-(4-pyridylmethyl)phthalazine hydrochloride (ZK) 0mg/kg), the histone deacetylase inhibitor 3-pyridylmethyl-N-{4-[(2-amino-enyl)carbamoyl]benzyl}carbamate (MS) dose and Tamoxifen (TAM) (TAM: g/kg KG i.p.). Apoptosis rate was assessed using a the TUNEL method on raformaldehyd fixed tumor material.

| SMILES | melting point | Tumor Volume (CC531 cells) [%] | tumor growth / primary tumor volume (in words) (CC531 cells) |
| --- | --- | --- | --- |
| Nc1ccccc1NC(=O)c1ccc(-n2cc(COc3ccc([N+](=O)[O-])cc3)oc2=O)cc1 [Example 137, N-(2-aminophenyl)-4-[5-(4-nitrophenoxy)methyl-1,3-oxazolin-2-on-3-yl]benzamide] | 162 to 164 °C |  |  |
| CC(C)c1ccc(Nc2nnc(Cc3ccncc3)c3ccccc23)cc1.Cl.Cl | > 250 °C |  |  |
| Cc1ncsc1CCOC(=O)NCc1ccc(C(=O)Nc2ccccc2N)cc1 [Example 64, N-(2-aminophenyl)-4-[N-[2-(4-methylthiazol-5-yl)ethoxycarbonyl]aminomethyl]benzamide] | 130 to 133 °C |  |  |
| Nc1ccccc1NC(=O)c1ccc(CNC(=O)OCc2cccnc2)cc1 [3-pyridylmethyl-N-{4-[(2-amino-phenyl)-carbamoyl]benzyl}-carbamate] |  | 80 ± 23 |  |
| Nc1ccccc1NC(=O)c1ccc(-n2cc(COc3cccnc3)oc2=O)cc1 [Example 139, N-(2-aminophenyl)-4-[5-(pyridin-3-yl)oxymethyl-1,3-oxazolin-2-on-3-yl]benzamide] | 199 to 201 °C |  |  |
| COC(=O)c1ccc(C(=O)NCc2ccc(C(=O)Nc3ccccc3N)cc2)cc1 [Example 11, N-(2-aminophenyl)-4-[N-(4-methoxycarbonylbenzoyl)aminomethyl]benzamide] | 204 to 209 °C (dec.) |  |  |
| Nc1ccccc1NC(=O)c1ccc(CNC(=O)OCc2cccnc2)cc1 [MS, N-(2-aminophenyl)-4-[N-(pyridin-3-yl)methoxycarbonylaminomethyl]benzamide] |  |  | no significant reduction |
| CC(=O)Nc1ccc(Nc2nnc(Cc3ccncc3)c3ccccc23)cc1 [Example A-11, 1-(4-Acetaminoanilino)-4-(4-pyridylmethyl)phthalazine] | > 270 °C |  |  |
| Cl.Nc1ccc2c(Cc3ccncc3)nnc(Nc3ccc(Cl)cc3)c2c1 | > 300 °C |  |  |
| O=c1[nH]cc(F)c(=O)[nH]1 [5-Fluorouracil (5FU), 5-Fluorouracil, reference compound] |  | 85 ± 19 | did not reduce tumor growth |
| Clc1ccc(Nc2nnc(Cc3ccncc3)c3ccccc23)cc1.O=C(O)CCC(=O)O [K, (4-Chlorophenyl)[4-(4-pyridylmethyl)-phthalazin-1-yl]-ammonium hydrogen succinate] |  | 94 ± 20 | no significant reduction |
| CC/C(=C(\c1ccccc1)c1ccc(OCCN(C)C)cc1)c1ccccc1 [Tamoxifen (TAM), (Z)-2-[p-(1,2-diphenyl-1-butenyl)phenoxy]-N,N-dimethylethylamine, reference compound] |  | 90 ± 10 | no significant reduction |

— patent publication US20050054647A1, “New pharmaceutical combination” (priority 2002, published 2005)
